Values after ≈ are worked out from the molar mass of the structure shown. Active and inactive are the calls of the source. No cut-off for these calls is given here. Bridge positions count the residues as written; N and C are the ends. Square brackets hold non-standard residues; d marks the D form. Peptide text beside a SMILES is read from it. * marks the point of attachment. ξ: configuration not given here. Hexanoyl(4ξ-Me) = CCC(C)CCC(=O)*; dOrn = NCCC[C@@H](N)C(=O)O; Orn = NCCC[C@H](N)C(=O)O Some results are limits rather than exact numbers.

Data set [1] concerns Staphylococcus aureus. Kind of data set: Antibacterial activity against Staphylococcus aureus ATCC 25923 at sub-MIC measured after 20 days. The data set is classed as functional, organism-based. To be noted: time 20.0 day.
Data set [2] concerns Staphylococcus aureus. The experiment in a line: In vivo antibacterial activity against Staphylococcus aureus ATCC 25923 infected in BALB/c mouse model assessed as reduction in bacterial count in liver at 10 mg/kg, ip preadministered with compound for 1 hr followed by bacterial infection and measured after 6 hrs […]. The data set is classed as functional, organism-based. Conditions: time 7.0 hrs.

Another data set deals with Erythrocyte. The experiment in a line: Hemolytic activity in mouse red blood cell assessed as hemolysis incubated for 1 hr. Type of data set: toxicity, cell-based.
The test system of data set [3] is Pseudomonas aeruginosa. Kind of data set: Antimicrobial activity against Pseudomonas aeruginosa ATCC 27853 assessed as reduction in microbial growth at 2 times MIC measured for 18 hrs in presence of 256 microg/ml LPS. Type of data set: functional, organism-based.
In data set [4] the test system is Staphylococcus aureus. The experiment in a line: Bactericidal activity against Staphylococcus aureus ATCC 25923 assessed as assessed as eradication of bacterial cells at 1 to 4 times MIC measured after 0.5 to 1 hr by time killing analysis. To be noted: time 0.5-1 hrs. The data set is classed as functional, organism-based.
The subject of data set [5] is Staphylococcus aureus. The experiment in a line: In vivo antibacterial activity against Staphylococcus aureus ATCC 25923 infected in BALB/c mouse model assessed as reduction in bacterial count in spleen at 10 mg/kg, ip preadministered with compound for 1 hr followed by bacterial infection and measured after 6 hrs […]. Conditions: time 7.0 hrs. The data set is classed as functional, organism-based.

Data set [6] relates to Pseudomonas aeruginosa. Kind of data set: Antibacterial activity against Pseudomonas aeruginosa ATCC 27853 assessed as fold increase in MIC pretreated with ZnCl2 followed by compound addition and measured after 2 hrs by broth microdilution method. The data set is classed as functional.
For data set [7], the system named is Pseudomonas aeruginosa. Kind of data set: Antibacterial activity against Pseudomonas aeruginosa ATCC 27853 assessed as fold increase in MIC pretreated with KCl followed by compound addition and measured after 2 hrs by broth microdilution method. The data set is classed as functional.
The test system of data set [8] is Cell membrane. The experiment in a line: Induction of outer membrane permeabilization in Pseudomonas aeruginosa ATCC 27853 assessed increase in fluorescence intensity at 1/2 to 4 times MIC measured upto 12 mins by fluorescence based NPN uptake assay. Type of data set: cell membranes.
Data set [9] has as its system Staphylococcus aureus. The experiment in a line: Antibacterial activity against Staphylococcus aureus ATCC 25923 pretreated with 5% mouse serum followed by compound addition and measured after 1 hr by broth microdilution method (reference value: 8 microM). Type of data set: functional.
In data set [10] the test system is Pseudomonas aeruginosa. The experiment in a line: Antibacterial activity against Pseudomonas aeruginosa ATCC 27853 assessed as fold increase in MIC pretreated with FeCl3 followed by compound addition and measured after 2 hrs by broth microdilution method. Type of data set: functional.
Data set [11] concerns Staphylococcus aureus. Kind of data set: Antibacterial activity against Staphylococcus aureus ATCC 25923 pretreated with Kcl followed by compound addition and measured after 2 hrs by broth microdilution method (reference value: 8 microM). Type of data set: functional.
Data set [12] relates to Pseudomonas aeruginosa. The experiment in a line: Induction of morphological changes in Pseudomonas aeruginosa ATCC 27853 assessed as aggregation at 2 times MIC measured after 0.5 hrs by SEM based analysis. Type of data set: functional, organism-based.
The nature of data set [13]: Toxicity in male BALB/c mouse assessed as edema in kidney at 46.88 mg/kg, ip administered as single dose by H and E staining based analysis. Conditions: in vivo. The data set is classed as organism-based.
Data set [14] has as its system Pseudomonas aeruginosa. Kind of data set: Antibacterial activity against Pseudomonas aeruginosa ATCC 27853 assessed as reduction in survival bacterial growth in presence of chymotrypsin measured after 8 hrs by absorbance based analysis. The data set is classed as functional, organism-based.
Data set [15] in a line: Half life in mouse serum by RP-HPLC analysis. The data set is classed as ADME, cell-free.
Data set [16] relates to Staphylococcus aureus. Kind of data set: Antibacterial activity against Staphylococcus aureus ATCC 25923 pretreated with 20% mouse serum followed by compound addition and measured after 1 hr by broth microdilution method (reference value: 8 microM). Type of data set: functional.
For data set [17], the system named is Pseudomonas aeruginosa. The experiment in a line: Antibacterial activity against Pseudomonas aeruginosa ATCC 27853 assessed as fold increase in MIC pretreated with MgCl2 followed by compound addition and measured after 2 hrs by broth microdilution method. Type of data set: functional.
The nature of data set [18]: Toxicity in male BALB/c mouse assessed as inflammatory cell infiltration in liver at 46.88 mg/kg, ip administered as single dose by H and E staining based analysis. Type of data set: organism-based. Conditions: in vivo.
The subject of data set [19] is Staphylococcus aureus. The experiment in a line: In vivo antibacterial activity against Staphylococcus aureus ATCC 25923 infected in BALB/c mouse model assessed as amelioration of pathological changes in kidney at 5 to 10 mg/kg, ip measured after 7 hrs by H and E staining based analysis. To be noted: dose 5-10 mg/kg. The data set is classed as functional, organism-based.

In data set [20] the test system is Cell membrane. The experiment in a line: Induction of cytoplasmic membrane depolarization in Staphylococcus aureus ATCC 25923 assessed as increase in fluorescence intensity measured upto 12 min by DiSC3-5 dye based fluorescence method. Type of data set: cell membranes.
The subject of data set [21] is Staphylococcus aureus. Kind of data set: In vivo antibacterial activity against Staphylococcus aureus ATCC 25923 infected in BALB/c mouse model assessed as reduction in bacterial count in lung at 10 mg/kg, ip preadministered with compound for 1 hr followed by bacterial infection and measured after 6 hrs […]. The data set is classed as functional, organism-based. Conditions: time 7.0 hrs.

In data set [22] the test system is Pseudomonas aeruginosa. The experiment in a line: Induction of morphological changes in Pseudomonas aeruginosa ATCC 27853 assessed as leakage of cellular content at 2 times MIC measured after 0.5 hrs by SEM based analysis. Type of data set: functional, organism-based.
The subject of data set [23] is Staphylococcus aureus. The experiment in a line: Antibacterial activity against Staphylococcus aureus ATCC 25923 pretreated with Kcl followed by compound addition and measured after 2 hrs by broth microdilution method (reference value: 64 microM). Type of data set: functional.
Data set [24] has as its system Pseudomonas aeruginosa. Kind of data set: Antibacterial activity against Pseudomonas aeruginosa ATCC 27853 assessed as fold increase in MIC pretreated with 2.5 to 20% mouse serum followed by compound addition and measured after 1 hr by broth microdilution method. Type of data set: functional.
The subject of data set [25] is Staphylococcus aureus. The experiment in a line: Antibacterial activity against Staphylococcus aureus ATCC 25923 assessed as fold increase in MIC pretreated with 2.5 to 20% mouse serum followed by compound addition and measured after 1 hr by broth microdilution method. Type of data set: functional.
Data set [26] relates to Staphylococcus aureus. The experiment in a line: Bactericidal activity against Staphylococcus aureus ATCC 25923 assessed as assessed as eradication of bacterial cells at 1/2 to 4 times MIC measured after 0.5 hr by time killing analysis. The data set is classed as functional, organism-based.
The subject of data set [27] is Staphylococcus aureus. Kind of data set: Antibacterial activity against Staphylococcus aureus ATCC 25923 pretreated with 10% mouse serum followed by compound addition and measured after 1 hr by broth microdilution method (reference value: 64 microM). The data set is classed as functional.
Data set [28] deals with Cell membrane. Kind of data set: Induction of outer membrane permeabilization in Pseudomonas aeruginosa ATCC 27853 assessed increase in fluorescence intensity at 1/2 MIC measured upto 12 mins by fluorescence based NPN uptake assay. The data set is classed as cell membranes.
Data set [29] deals with Pseudomonas aeruginosa. The experiment in a line: Bactericidal activity against Pseudomonas aeruginosa ATCC 27853 assessed as assessed as eradication of bacterial cells at 2 to 4 times MIC measured after 0.5 hr by time killing analysis. The data set is classed as functional, organism-based.
The test system of data set [30] is Pseudomonas aeruginosa. The experiment in a line: Antimicrobial activity against Pseudomonas aeruginosa ATCC 27853 assessed as reduction in microbial growth at 2 times MIC measured for 18 hrs in presence of 64 microg/ml LPS. The data set is classed as functional, organism-based.
For data set [31], the system named is Staphylococcus aureus. The experiment in a line: Induction of morphological changes in Staphylococcus aureus ATCC 25923 assessed as leakage of cellular content at 2 times MIC measured after 0.5 hrs by SEM based analysis. Type of data set: functional, organism-based.
Data set [32] has as its system Pseudomonas aeruginosa. The experiment in a line: Bactericidal activity against Pseudomonas aeruginosa ATCC 27853 assessed as assessed as eradication of bacterial cells at 2 to 4 times MIC measured after 0.5 hr by time killing analysis relative to control. The data set is classed as functional, organism-based.
In data set [33] the test system is Staphylococcus aureus. Kind of data set: Antibacterial activity against Staphylococcus aureus ATCC 25923 pretreated with 5% mouse serum followed by compound addition and measured after 6 hrs by broth microdilution method (reference value: 16 microM). The data set is classed as functional, organism-based.

With `CCCCCCCCCC(=O)N[C@H](CCCN)C(=O)N[C@H](Cc1ccc(O)cc1)C(=O)N[C@H](Cc1c[nH]c2ccccc12)C(=O)N[C@H](CCCN)C(=O)N[C@@H](CCCN)C(=O)NCC(=O)N[C@H](CCCN)C(=O)N[C@@H](Cc1c[nH]c2ccccc12)C(=O)N[C@H](C(=O)N[C@H](C(=O)NCC(=O)N[C@@H](CO)C(=O)O)[C@@H](C)CC)[C@@H](C)O`, the result in the data set on Staphylococcus aureus [1], in the data set on Staphylococcus aureus [2], in the data set on Staphylococcus aureus [4], with Staphylococcus aureus [5], in the data set on Pseudomonas aeruginosa [12] and in the data set on Pseudomonas aeruginosa [14] was Active. Moreover, the outcome in the data set on Staphylococcus aureus [19] and with Staphylococcus aureus [21] was Active. For the same molecule, the MHC in the data set on Erythrocyte was found to be 128 µM. The outcome in the data set on Pseudomonas aeruginosa [3] and in the data set on Cell membrane [8] was inactive. Besides, the “fold change (FC)” value with Pseudomonas aeruginosa [6], in the data set on Pseudomonas aeruginosa [7], in the data set with Pseudomonas aeruginosa [10] and with Pseudomonas aeruginosa [17] was 8 in each case. For the same molecule, the MIC is 16 µM (≈ 25.3 µg/mL) with Staphylococcus aureus [9], 8 µM (≈ 12.6 µg/mL) in the data set on Staphylococcus aureus [11] and above 128 µM with Staphylococcus aureus [16]. The Activity entry in data set [13] is “Toxic”; in data set [18], “Toxic”; in the data set with Cell membrane [20], “Dose-Dependent Effect”. Besides, in [15], the half-life is 41 h.

With `CCC(C)CCC(=O)N[C@H](CC(N)=O)C(=O)N[C@H](Cc1ccc(O)cc1)C(=O)N[C@H](Cc1c[nH]c2ccccc12)C(=O)N[C@H](CCCN)C(=O)N[C@@H](CCCN)C(=O)NCC(=O)N[C@H](CCCN)C(=O)N[C@@H](Cc1c[nH]c2ccccc12)C(=O)N[C@@H]1C(=O)N[C@@H]([C@@H](C)CC)C(=O)NCC(=O)N[C@@H](CO)C(=O)O[C@@H]1C` (some centres not stated) ({Hexanoyl(4ξ-Me)}-[dN][dY][dW][dOrn][Orn]G[dOrn]WTIGS; ester 9-C), the result in the data set with Staphylococcus aureus [1], in the data set with Pseudomonas aeruginosa [22], in the data set on Staphylococcus aureus [26], with Pseudomonas aeruginosa [29], with Pseudomonas aeruginosa [14] and in the data set with Staphylococcus aureus [31] was Active. The MHC with Erythrocyte amounted to 128 µM. Also, the MIC in the data set with Staphylococcus aureus [23] and in the data set with Staphylococcus aureus [27] was 64 µM (≈ 97.3 µg/mL) each time. The “fold change (FC)” value worked out at 2 in the data set on Pseudomonas aeruginosa [24]; 2 in the data set on Staphylococcus aureus [25]; 2 with Pseudomonas aeruginosa [6]; 4 with Pseudomonas aeruginosa [7]; 2 in the data set with Pseudomonas aeruginosa [10]; 4 with Pseudomonas aeruginosa [17]. Moreover, the result in the data set with Cell membrane [28] and in the data set on Pseudomonas aeruginosa [30] was inactive. In data set [15], this molecule showed a half-life of 4.47 h.

On to POLYMYXIN B, for which the result in the data set with Pseudomonas aeruginosa [22], with Staphylococcus aureus [5], in the data set on Staphylococcus aureus [19] and in the data set on Staphylococcus aureus [21] was Active. Besides, the result in the data set on Pseudomonas aeruginosa [3] was inactive. Besides, the Activity with Pseudomonas aeruginosa [32] is 100%. Also, in the data set on Staphylococcus aureus [33], the MIC was 16 µM.
